# Test results as given in US11286258B2, “Nature-inspired anticancer and antibacterial motifs and pharmaceutical composition thereof” (University of Sharjah, priority 2020, dated 2022).
# Like-named read-outs stand apart in the source and are kept apart here. Marks after values point to notes of the source that are not given here.
# Key:
# E. coli ATCC25922 = assay: MIC broth microdilution, E. coli ATCC25922; assay type: cell-based, Escherichia coli; settings: not MDR, overnight incubation; for MIC: Escherichia coli, ATCC25922
# Method: (§1) Antibacterial activity: The compounds were tested for the minimum inhibitory concentrations (MIC), which is the lowest concentration of a chemical required to inhibit visible microbial growth following overnight incubation. MIC values were determined using broth microdilution method according to the Clinical and Laboratory Standards Institute guidelines (CLSI, 2015, M07-A10). Mueller-Hinton broth was used as a culture medium in all the experiments. Exponentially growing bacterial cells were prepared in Mueller-Hinton broth at a concentration of approximately 5×10^5 CFU/mL. Two-fold serial dilutions of the test compound (8 concentrations ranged between 100-0.78 μg/mL) were tested. […] In each experiment, solvent (DMSO) was used as a negative control, un-treated control (composing of bacteria in Mueller-Hinton broth) was used as a growth control, blank (culture media alone) was used as sterility control. The 96-well microplate with the test compounds was incubated overnight at 37° C. Turbidity in wells indicated bacterial growth.
# (§2) The compounds were tested on six MDR Gram-positive bacteria including three clinical isolates of methicillin-resistant Staphylococcus aureus (MRSA-1, MRSA-2 and MRSA-3) and three reference MRSA strains (ATCC33591, ATCC33592 and ATCC700699). They were also tested on three MDR Gram-negative bacteria including New Delhi metallo-beta-lactamase (NDM-1) positive, carbapenem-resistant E. coli (ATCC BAA2469), extended-spectrum beta-lactamase (ESBL) producing, colistin-resistant E. coli (CDC-AR-0346) and carbapenem-resistant Acinetobacter baumannii (ATCC BAA1605), in addition to two non-MDR bacteria from the same species, namely E. coli (ATCC 25922) Acinetobacter baumannii (ATCC 19606).
# [1] = tested on: E. coli ATCC BAA2469 (NDM-1 carbapenem-resistant); assay: MIC broth microdilution, E. coli ATCC BAA2469; assay type: cell-based, Escherichia coli; settings: overnight incubation; for MIC: Escherichia coli, ATCCBAA2469, MDR; for MIC E. coli ATCC BAA2469 (NDM-1 carbapenem-resistant): MDR
# Method: as §1, §2
# [2] = tested on: E. coli CDC-AR-0346 (ESBL, colistin resistant); assay: MIC broth microdilution, E. coli CDC-AR-0346; assay type: cell-based, Escherichia coli; settings: MDR, overnight incubation; for MIC: Escherichia coli
# Method: as §1, §2
# [3] = tested on: Acinetobacter baumannii ATCC 19606; assay: MIC broth microdilution, A. baumannii ATCC 19606; assay type: cell-based; settings: not MDR, overnight incubation; for MIC: Acinetobacter baumannii, ATCC19606
# Method: as §1, §2
# [4] = tested on: Acinetobacter baumannii ATCC BAA1605 (carbapenem-resistant); assay: MIC broth microdilution, A. baumannii ATCC BAA1605; assay type: cell-based; settings: overnight incubation; for MIC: Acinetobacter baumannii, ATCCBAA1605, MDR; for MIC Acinetobacter baumannii ATCC BAA1605 (carbapenem-resistant): MDR
# Method: as §1, §2
# HCT-116 = assay: MTT cell viability, HCT-116; assay type: cell-based; settings: Homo sapiens, colon cancer, 48 h of drug treatment, average of three experiments
# Source text: (§3) Cell culture: In this study five different cancer cell lines were used, human lung carcinoma (A549), human breast adenoma (MCF-7), Cervical carcinoma (Hela), hepatocellular carcinoma (Hep3B), and colorectal adenocarcinoma (HCT-116). These cells were obtained from the European Collection of Cell Cultures (ECACC, UK). Hep3B cells were maintained in Dulbecco's Modified Eagle Medium (DMEM: Sigma-Aldrich), and the four other cell lines were maintained in Roswell Park Memorial Institute medium (RPMI, Sigma-Aldrich, St. Louis, Mo., USA), which was supplemented with 10% fetal bovine serum (FBS, Sigma-Aldrich) and 1% penicillin/streptomycin (Sigma-Aldrich). Cells were incubated all the time at 37° C. in a humidified atmosphere of 5% CO2. Cell viability studies: Cell viability was assessed using the MTT assay as described before. In brief, all cancer cell lines were seeded at a density of 4×10^4/well in 96 well flat-bottom plates. After 24 h from seeding, cells were treated with the synthesized compounds and left for an incubation period of 48 h. Upon reaching the indicated time point, the media was removed and replaced with 200 μL fresh media containing 0.5 mg/mL of MTT tetrazolium dye (Sigma-Aldrich). Cells were then incubated with MTT solution for 2 h at 37° C. The resultant formazan crystals were dissolved in 200 μl/well of DMSO and absorbance was measured at 570 nm using a microplate reader (Thermo Scientific).
# HELA = assay: MTT cell viability, HELA; assay type: cell-based; settings: Homo sapiens, cervical cancer, 48 h of drug treatment, average of three experiments
# Source text: as §3
# A549 = assay: MTT cell viability, A549; assay type: cell-based; settings: Homo sapiens, lung cancer, 48 h of drug treatment, average of three experiments
# Source text: as §3
# HEP3B = assay: MTT cell viability, HEP3B; assay type: cell-based; settings: Homo sapiens, liver cancer, 48 h of drug treatment, average of three experiments
# Source text: as §3
# MCF-7 = assay: MTT cell viability, MCF-7; assay type: cell-based; settings: Homo sapiens, MCF7; breast cancer; 48 h of drug treatment; average of three experiments
# Source text: as §3
# [5] = tested on: MRSA-1 (clinical isolate); assay: MIC broth microdilution, MRSA-1; assay type: cell-based, Staphylococcus aureus; settings: for MIC: Staphylococcus aureus, MRSA, read-out: MIC MRSA-1 (clinical isolate)
# Method: as §1, §2
# [6] = tested on: MRSA-2 (clinical isolate); assay: MIC broth microdilution, MRSA-2; assay type: cell-based, Staphylococcus aureus; settings: for MIC: Staphylococcus aureus, MRSA, read-out: MIC MRSA-2 (clinical isolate)
# Method: as §1, §2
# [7] = tested on: MRSA-3 (clinical isolate); assay: MIC broth microdilution, MRSA-3; assay type: cell-based, Staphylococcus aureus; settings: for MIC: Staphylococcus aureus, MRSA, read-out: MIC MRSA-3 (clinical isolate)
# Method: as §1, §2
# MRSA-ATCC33591 = assay: MIC broth microdilution, MRSA ATCC33591; assay type: cell-based, Staphylococcus aureus; settings: for MIC: Staphylococcus aureus, read-out: MIC MRSA-ATCC33591
# Method: as §1, §2
# MRSA-ATCC33592 = assay: MIC broth microdilution, MRSA ATCC33592; assay type: cell-based, Staphylococcus aureus; settings: for MIC: Staphylococcus aureus, read-out: MIC MRSA-ATCC33592
# Method: as §1, §2
# MRSA-ATCC700699 (VISA) = assay: MIC broth microdilution, MRSA ATCC700699 (VISA); assay type: cell-based, Staphylococcus aureus; settings: for MIC: Staphylococcus aureus, read-out: MIC MRSA-ATCC700699 (VISA)
# Method: as §1, §2
# [8] = overnight incubation, Mueller-Hinton broth
# [9] = strain intermediately resistant to vancomycin, overnight incubation
molecule,measurement,setting,value
CO/N=C(\C(=O)N[C@@H]1C(=O)N2C(C(=O)O)=C(COC(C)=O)CS[C@H]12)c1csc(N)n1 [Cefotaxime],MIC,E. coli ATCC25922,0.03 µg/mL
same,MIC,[1],250 µg/mL
same,MIC,[2],> 1000 µg/mL
same,MIC,[3],20 µg/mL
same,MIC,[4],≥ 1000 µg/mL
same,MIC Acinetobacter baumannii ATCC BAA1605 (carbapenem-resistant),[4],1000 µg/mL
CO/N=C(\C(=O)N[C@@H]1C(=O)N2C(C(=O)O)=C(CSc3nc(=O)c(=O)[nH]n3C)CS[C@H]12)c1csc(N)n1 [Ceftriaxone],MIC,E. coli ATCC25922,0.03 µg/mL
same,MIC,[1],500 µg/mL
same,MIC,[2],> 1000 µg/mL
same,MIC,[3],20 µg/mL
same,MIC,[4],≥ 1000 µg/mL
same,MIC Acinetobacter baumannii ATCC BAA1605 (carbapenem-resistant),[4],>1000 µg/mL
Fc1ccc(N/N=C2\C=C[C@@]3(CC2)CC[C@@H]2NCCc4c2n3c2ccccc42)cc1 [Compound 1b],IC50,HCT-116,6.43 ± 0.03 µM
same,IC50,HELA,> 10 µM
same,IC50,A549,10.25 ± 0.08 µM
same,IC50,HEP3B,8 ± 0.07 µM
same,IC50,MCF-7,6.22 ± 0.16 µM
Brc1ccc(N/N=C2\C=C[C@@]3(CC2)CC[C@@H]2NCCc4c2n3c2ccccc42)cc1 [Compound 1c],IC50,HCT-116,2.65 ± 0.05 µM
same,IC50,HELA,5.3 ± 0.35 µM
same,IC50,A549,3.9 ± 0.04 µM
same,IC50,HEP3B,4.21 ± 0.06 µM
same,IC50,MCF-7,2.75 ± 0.06 µM
same,MIC,[5]; [8],3.12 µg/mL
same,MIC,[6]; [8],3.12 µg/mL
same,MIC,[7]; [8],3.12 µg/mL
same,MIC,MRSA-ATCC33591; [8],6.25 µg/mL
same,MIC,MRSA-ATCC33592; [8],6.25 µg/mL
same,MIC,MRSA-ATCC700699 (VISA); [9],6.25 µg/mL
FC(F)(F)c1ccc(N/N=C2\C=C[C@@]3(CC2)CC[C@@H]2NCCc4c2n3c2ccc(OCc3ccccc3)cc42)cc1 [Compound 1l],MIC,[5]; [8],1.56 µg/mL
same,MIC,[6]; [8],3.12 µg/mL
same,MIC,[7]; [8],3.12 µg/mL
same,MIC,MRSA-ATCC33591; [8],3.12 µg/mL
same,MIC,MRSA-ATCC33592; [8],3.12 µg/mL
same,MIC,MRSA-ATCC700699 (VISA); [9],3.12 µg/mL
COC(=O)[C@@H]1Cc2c3n(c4ccccc24)[C@@]2(C=C/C(=N\Nc4ccc(C(F)(F)F)cc4)CC2)CC[C@@H]3N1 [Compound 1m],MIC,[5]; [8],3.12 µg/mL
same,MIC,[6]; [8],3.12 µg/mL
same,MIC,[7]; [8],3.12 µg/mL
same,MIC,MRSA-ATCC33591; [8],6.25 µg/mL
same,MIC,MRSA-ATCC33592; [8],6.25 µg/mL
same,MIC,MRSA-ATCC700699 (VISA); [9],6.25 µg/mL
COC(=O)[C@H]1Cc2c3n(c4ccccc24)[C@@]2(C=C/C(=N\Nc4ccc(C(F)(F)F)cc4)CC2)CC[C@@H]3N1 [Compound 1n],MIC,[5]; [8],3.12 µg/mL
same,MIC,[6]; [8],3.12 µg/mL
same,MIC,[7]; [8],3.12 µg/mL
same,MIC,MRSA-ATCC33591; [8],6.25 µg/mL
same,MIC,MRSA-ATCC33592; [8],6.25 µg/mL
same,MIC,MRSA-ATCC700699 (VISA); [9],6.25 µg/mL
C[C@@H](O)[C@H]1C(=O)N2C(C(=O)O)=C(S[C@@H]3CN[C@H](C(=O)N(C)C)C3)[C@H](C)[C@H]12 [Meropenem],MIC,E. coli ATCC25922,< 0.02 µg/mL
same,MIC,[1],25 µg/mL
same,MIC,[2],< 0.2 µg/mL
same,MIC,[3],0.6 µg/mL
same,MIC,[4],12.5 µg/mL
"CN[C@H](CC(C)C)C(=O)N[C@H]1C(=O)N[C@@H](CC(N)=O)C(=O)N[C@H]2C(=O)N[C@H]3C(=O)N[C@H](C(=O)N[C@H](C(=O)O)c4cc(O)cc(O)c4-c4cc3ccc4O)[C@H](O)c3ccc(c(Cl)c3)Oc3cc2cc(c3O[C@@H]2O[C@H](CO)[C@@H](O)[C@H](O)[C@H]2O[C@H]2C[C@](C)(N)[C@H](O)[C@H](C)O2)Oc2ccc(cc2Cl)[C@H]1O [Vancomycin, reference compound]",MIC,[5],1 µg/mL
same,MIC,[6],1 µg/mL
same,MIC,[7],1 µg/mL
same,MIC,MRSA-ATCC33591,1 µg/mL
same,MIC,MRSA-ATCC33592,1 µg/mL
same,MIC,MRSA-ATCC700699 (VISA),8 µg/mL
same,MIC MRSA-ATCC700699 (VISA),MRSA-ATCC700699 (VISA); [9],8 * μg/mL
Colistin,MIC E. coli ATCC25922,E. coli ATCC25922,0.2 µg/mL
same,MIC E. coli ATCC BAA2469 (NDM-1 carbapenem-resistant),[1],1.25 µg/mL
same,"MIC E. coli CDC-AR-0346 (ESBL, colistin resistant)",[2],6.25 µg/mL
same,MIC Acinetobacter baumannii ATCC 19606,[3],1.25 µg/mL
same,MIC Acinetobacter baumannii ATCC BAA1605 (carbapenem-resistant),[4],1.25 µg/mL
Gentamicin [reference compound],MIC MRSA-1 (clinical isolate),[5]; [8],50 µg/mL
same,MIC MRSA-2 (clinical isolate),[6]; [8],0.625 µg/mL
same,MIC MRSA-3 (clinical isolate),[7]; [8],0.625 µg/mL
same,MIC MRSA-ATCC33591,MRSA-ATCC33591; [8],2.5 µg/mL
same,MIC MRSA-ATCC33592,MRSA-ATCC33592; [8],>500 µg/mL
same,MIC MRSA-ATCC700699 (VISA),MRSA-ATCC700699 (VISA); [9],500 µg/mL
same,MIC E. coli ATCC25922,E. coli ATCC25922,0.625 µg/mL
same,MIC E. coli ATCC BAA2469 (NDM-1 carbapenem-resistant),[1],>1000 µg/mL
same,"MIC E. coli CDC-AR-0346 (ESBL, colistin resistant)",[2],>1000 µg/mL
same,MIC Acinetobacter baumannii ATCC 19606,[3],10 µg/mL
same,MIC Acinetobacter baumannii ATCC BAA1605 (carbapenem-resistant),[4],125 µg/mL
